In PMC9605497, “Potential of Epidermal Growth Factor-like Peptide from the Sea Cucumber Stichopus horrens to Increase the Growth of Human Cells: In Silico Molecular Docking Approach” (Marine Drugs, 2022):
“Also recorded” adds a separate entry of the source.

Tested on: EGF/PDGF pathway genes
Assay: qPCR array of EGF/PDGF pathway genes
Assay type: cell-based, human
Parameters: key to expression class: +: Maximum expression; −: Minimum expression; unc.: Unchanged
Conditions: 10 nM, 4 h; for fold change: vs serum-free medium
Protocol: Cells were seeded at 80,000 cells per well of 24-well plates in 400 µL of complete growth medium. Cells were grown in MEM basal medium supplemented with 10% FBS and 1% antibiotic–antimycotic in a humidified incubator at 37 °C, equilibrated with 5% CO2. After 24 h of culture, the medium was removed, washed once with PBS, replaced with serum-free medium and left to culture for another 16 h. Medium was removed and replaced with corresponding treatment medium each in triplicates; 10 nM and 50 nM of Sh-EGFl-1, 10 nM and 50 nM of rhEGF were used as a positive control and serum-free medium was used as a negative control. Cells were harvested after 4 h. Medium was removed and 200 μL of Trizol reagent (Thermo Scientific, Waltham, MA, USA) was immediately added.
RNA extraction was performed according to Trizol reagent manufacturer’s protocol. An elution volume of 15 μL RNase-free water was added before the concentration and purity were determined using NanoDrop.
A total of 100 ng RNA was used initially for the cDNA synthesis reaction. The reaction was carried out according to RT^2 First Strand Kit’s protocol (Qiagen, Venlo, Netherlands). Genomic DNA was removed according to the manufacturer’s protocol prior to cDNA strand generation.
The 10 μL cDNA of human skin cells was diluted with 91 μL prior to qPCR reaction. Primer pairs of 84 genes involved in the EGF pathway, five housekeeping genes such as ribosomal protein large, P0 (RPL0), glyceraldehyde-3-phosphate-dehydrogenase (GAPDH), beta-actin (ACTB), beta-2-microglobulin (B2M) and hypoxanthine phosphoribosyltransferase 1 (HPRT1), one positive control gene for genomic DNA contamination, three reverse transcription control genes and three PCR-positive controls were included in the Qiagen PAHS-040ZA qPCR array plate (Qiagen, Venlo, Netherlands). A list of all genes analyzed in this study is available in Supplementary Materials Table S7. The mixture reaction was prepared according to the protocol and run using BioRad CFX96TM. Samples of 10 nM rhEGF and 10 nM Sh-EGFl-1 were prepared in duplicates. The following thermal profile was applied: 1 cycle at 95 °C for 10 min, 40 cycles at 95 °C for 15 s, 60 °C for 1 min, with the ramp rate from 95 °C to 60 °C was set at 1 °C every second. The data were then analyzed through Qiagen web portal. Data for serum-free medium were selected as a control group and the differences in gene expression between control and treatment groups were calculated using the 2^(−delta delta CT) method. The difference, known as fold change, was obtained from the delta delta CT values, which are the genes of interest and the average housekeeping genes, followed by the delta delta CT (delta CT (treatment group)—delta CT (control group)).

[1] = IKBKB (IKK), PLC gamma signaling
[2] = PLCG1 (PLC), PLC gamma signaling
[3] = PPP2CA (TSC2), PLC gamma signaling
[4] = RASA1 (p120GAP), MAPK signaling
[5] = RPS6KA5 (p70S6K), MAPK signaling
[6] = RPS6KA5 (p70S6K), PI3K signaling
[7] = RPS6KA5 (p70S6K), PLC gamma signaling
[8] = RPS6KB1 (p70S6K), MAPK signaling
[9] = RPS6KB1 (p70S6K), PI3K signaling
[10] = RPS6KB1 (p70S6K), PLC gamma signaling

H-NINECFSSPCENQGICQDEIDGYNCVCQPGFTGTHCESSMLNHVI-OH (disulfide) [Sh-EGFl-1, 45 amino acid EGF-like peptide from Stichopus horrens contig 498513, synthesized by Fmoc solid-phase peptide chemistry]
gene expression of individual genes, in words: relatively high expression of MAPK8, MAPK9, MAP2K7, MKK, MAPK1, ELK1 and c-JUN; also recorded: high expression of Src, Ras, Kras and Raf; also recorded: IL-2 is minimally expressed; also recorded: increased expression of the adaptor proteins Shc, Sos and Grb2 | signaling pathways activated (qPCR array): phosphoinositide 3-kinase (PI3K), mitogen-activated protein kinase (MAPK), phospholipase C gamma (PLC-gamma), Janus kinase-signal transducer and activator of transcription (JAK-STAT) and Ras homologous (Rho) pathways; also recorded: PI3K–AKT–GSK3, Ras–Raf–MEK–ERK–MAPK, PLC gamma, STAT and Rho signaling pathways | gene expression profile, EGF/PDGF pathway (qPCR array heat map): upregulation of most genes involved in EGF/PDGF pathways | expression class (AKT1, PI3K signaling): + | fold change (AKT1, PI3K signaling): (0.95) | expression class (AKT3, PI3K signaling): + | fold change (AKT3, PI3K signaling): (1.11) | expression class (ATF1, MAPK signaling): + | expression class (ATF2, MAPK signaling): + | fold change (ATF2, MAPK signaling): (0.89) | expression class (CASP3, MAPK signaling): + | fold change (CASP3, MAPK signaling): (1.05) | expression class (CASP9, MAPK signaling): + | fold change (CASP9, MAPK signaling): (0.93) | expression class (CBL, MAPK signaling): − | fold change (CBL, MAPK signaling): (1.00) | expression class (CCND1, PI3K signaling): − | fold change (CCND1, PI3K signaling): (1.17) | expression class (DUSP1, MAPK signaling): + | fold change (DUSP1, MAPK signaling): (0.97) | expression class (DUSP6, MAPK signaling): + | fold change (DUSP6, MAPK signaling): (1.05) | expression class (E1F4E, PI3K signaling): + | fold change (E1F4E, PI3K signaling): (1.28) | expression class (ELK1, JAK-STAT signaling): + | fold change (ELK1, JAK-STAT signaling): (1.08) | expression class (FOS, JAK-STAT signaling): + | fold change (FOS, JAK-STAT signaling): (1.50) | expression class (GAB1, PI3K signaling): + | fold change (GAB1, PI3K signaling): (1.00) | expression class (GRB2, PI3K signaling): + | fold change (GRB2, PI3K signaling): (1.07) | expression class (GSK3A, PI3K signaling): unc. | fold change (GSK3A, PI3K signaling): (0.87) | expression class (GSK3B, PI3K signaling): + | fold change (GSK3B, PI3K signaling): (1.06) | expression class (HRAS, MAPK signaling): + | fold change (HRAS, MAPK signaling): (0.93) | expression class (IKBKB (IKK), PI3K signaling): + | fold change (IKBKB (IKK), PI3K signaling): (1.06) | expression class [1]: + | fold change [1]: (1.06) | expression class (IKBKB, MAPK signaling): + | expression class (JAK1, JAK-STAT signaling): + | fold change (JAK1, JAK-STAT signaling): (1.02) | expression class (JUN, JAK-STAT signaling): + | fold change (JUN, JAK-STAT signaling): (1.32) | expression class (MAP2K1 (MEK1), MAPK signaling): unc. | fold change (MAP2K1 (MEK1), MAPK signaling): (0.91) | expression class (MAP2K4 (MKK4), MAPK signaling): unc. | fold change (MAP2K4 (MKK4), MAPK signaling): (0.84) | expression class (MAP2K7 (MKK7), MAPK signaling): + | fold change (MAP2K7 (MKK7), MAPK signaling): (1.0) | expression class (MAP3K2 (MEKK2), MAPK signaling): + | fold change (MAP3K2 (MEKK2), MAPK signaling): (1.27) | expression class (MAPK1 (ERK2), MAPK signaling): + | fold change (MAPK1 (ERK2), MAPK signaling): (1.03) | expression class (MAPK3 (ERK1), MAPK signaling): + | fold change (MAPK3 (ERK1), MAPK signaling): (0.98) | expression class (MAPK8, MAPK signaling): + | fold change (MAPK8, MAPK signaling): (0.99) | expression class (MAPK9, MAPK signaling): unc. | fold change (MAPK9, MAPK signaling): (0.80) | expression class (MAPK10, MAPK signaling): − | fold change (MAPK10, MAPK signaling): (0.55) | expression class (MKNK1, MAPK signaling): − | fold change (MKNK1, MAPK signaling): (0.82) | expression class (NFATC3, MAPK signaling): + | fold change (NFATC3, MAPK signaling): (1.22) | expression class (NFKB, PI3K signaling): + | fold change (NFKB, PI3K signaling): (1.02) | expression class (NFKB, PLC gamma signaling): + | fold change (NFKB, PLC gamma signaling): (1.02) | expression class (P13KCA, PI3K signaling): + | fold change (P13KCA, PI3K signaling): (1.47) | expression class (PDPK1 (PDK1), PI3K signaling): unc. | fold change (PDPK1 (PDK1), PI3K signaling): (0.95) | expression class (PIK3R1, PI3K signaling): + | fold change (PIK3R1, PI3K signaling): (0.98) | expression class (PIK3R2, PI3K signaling): + | fold change (PIK3R2, PI3K signaling): (1.17) | expression class [2]: + | fold change [2]: (1.18) | expression class [3]: + | fold change [3]: (0.94) | expression class (PRKCA, PLC gamma signaling): + | fold change (PRKCA, PLC gamma signaling): (1.10) | expression class (RAP1A, MAPK signaling): + | fold change (RAP1A, MAPK signaling): (1.14) | expression class [4]: + | fold change [4]: (1.07) | expression class (RHOA, Rho signaling): + | fold change (RHOA, Rho signaling): (1.08) | expression class [5]: + | fold change [5]: (0.97) | expression class [6]: + | fold change [6]: (0.97) | expression class [7]: + | fold change [7]: (0.97) | expression class [8]: + | fold change [8]: (1.00) | expression class [9]: + | fold change [9]: (1.00) | expression class [10]: + | fold change [10]: (1.00) | expression class (SHC1, MAPK signaling): + | fold change (SHC1, MAPK signaling): (0.94) | expression class (SHC1, PI3K signaling): + | fold change (SHC1, PI3K signaling): (0.94) | expression class (SRC, JAK-STAT signaling): + | fold change (SRC, JAK-STAT signaling): (1.18) | expression class (STAT3, JAK-STAT signaling): + | fold change (STAT3, JAK-STAT signaling): (1.06) | expression class (STAT5, JAK-STAT signaling): + | fold change (STAT5, JAK-STAT signaling): (1.06) | expression class (TP53, MAPK signaling): + | fold change (TP53, MAPK signaling): (0.96) | expression class (TP53, PI3K signaling): + | fold change (TP53, PI3K signaling): (0.96)
